Data on twelve compounds can be found in ChEMBL document CHEMBL5214898 (J Med Chem, 2021).

Series [1] can be described thus: Drug uptake in rat assessed as unbound concentration at 10 mg/kg measured after 24 hrs. In kind it is ADME, organism-based. Conditions: in vivo.
The nature of series [2]: Drug uptake in rat at 10 mg/kg measured after 24 hrs. In kind it is ADME, organism-based. Conditions: in vivo, read-out: Drug uptake.
A short description of series [3]: Unbound Cmax in rat at 10 mg/kg. In kind it is ADME, organism-based. The settings on record: in vivo.
Series [4] in a line: Cmax in rat at 10 mg/kg. In kind it is ADME, organism-based. On the set-up: dose 10 mg/kg. The settings on record: in vivo.
Series [5] can be described thus: Clearance in Wistar Han rat plasma 2 mg/kg, iv measured for 2 to 1440 mins by LC-MS/MS analysis. In kind it is ADME, organism-based. Conditions: time 2-1440 min.
A short description of series [6]: Half life in Wistar Han rat plasma 2 mg/kg, iv by LC-MS/MS analysis. In kind it is ADME, organism-based.
Series [7] in a line: AUC in Wistar Han rat plasma 10 mg/kg, po measured for 15 to 1440 mins by LC-MS/MS analysis. In kind it is ADME, organism-based.
The nature of series [8]: Drug uptake in Wistar Han rat plasma 10 mg/kg, po measured after 24 hrs mins by LC-MS/MS analysis. In kind it is ADME, organism-based.
A short description of series [9]: Cmax in Wistar Han rat plasma 10 mg/kg, po measured for 15 to 1440 mins by LC-MS/MS analysis. In kind it is ADME, organism-based.
Series [10] is described as follows: Tmax in Wistar Han rat plasma 10 mg/kg, po measured for 15 to 1440 mins by LC-MS/MS analysis. In kind it is ADME, organism-based. The settings on record: time 15-1440 min.
Series [11] can be described thus: Oral bioavailability in Wistar Han rat plasma 10 mg/kg measured for 15 to 1440 mins by LC-MS/MS analysis relative to control. In kind it is ADME, organism-based. The settings on record: time 15-1440 min.
Series [12] in a line: Clearance in Beagle dog plasma 1 mg/kg, iv measured for 2 to 1440 mins by LC-MS/MS analysis. In kind it is ADME, organism-based, Canis lupus familiaris. Conditions: time 2-1440 min.
Series [13] in a line: Oral bioavailability in Beagle dog plasma 2 mg/kg measured for 15 to 1440 mins by LC-MS/MS analysis relative to control. In kind it is ADME, organism-based, Canis lupus familiaris. Conditions: time 15-1440 min.
Series [14] in a line: Tmax in Beagle dog plasma 2 mg/kg, po measured for 15 to 1440 mins by LC-MS/MS analysis. In kind it is ADME, organism-based, Canis lupus familiaris. The settings on record: time 15-1440 min.
Series [15] is described as follows: Cmax in Beagle dog plasma 2 mg/kg, po measured for 15 to 1440 mins by LC-MS/MS analysis. In kind it is ADME, organism-based, Canis lupus familiaris.
Series [16] can be described thus: AUC in Beagle dog plasma 2 mg/kg, po measured for 15 to 1440 mins by LC-MS/MS analysis. In kind it is ADME, organism-based, Canis lupus familiaris.
Series [17] can be described thus: Drug uptake in Beagle dog plasma 2 mg/kg, po measured after 24 hrs mins by LC-MS/MS analysis. In kind it is ADME, organism-based, Canis lupus familiaris.
Series [18] can be described thus: Half life in Beagle dog plasma 1 mg/kg, iv by LC-MS/MS analysis. In kind it is ADME, organism-based, Canis lupus familiaris.

For `CCC(=O)CCCCC[C@H](NC(=O)[C@H]1CC12CCN(C)CC2)c1ncc(-c2cc3ccccc3nc2OC)[nH]1`, the “Drug uptake(free)” value in [1] amounted to 0.11 nM. In addition, in series [2], the concentration at 24 h turned out to be 9 nM. This compound also showed a fCmax in series [3] of 7.5 nM. Further, the Cmax in series [4] is 627 nM.

`CCC(=O)CCCCC[C@H](NC(=O)[C@H]1CC12CCN(CC)CC2)c1ncc(-c2cc3cn(C)nc3cc2OC)o1` came in with a clearance in series [5] of 49 mL/min/kg. In [6], the half-life was 5.1 h. Besides, in series [7], the AUC was found to be 2.3 µM·h. Besides, in series [8], the concentration at 24 h came out at 3.6 nM. Moreover, the highest level in [9] (Cmax) was 510 nM. Further, the Tmax in series [10] stood at 4 h. In series [11], this compound had a bioavailability of 37%.

Consider `CCC(=O)CCCCC[C@H](NC(=O)[C@H]1CC12CCN(C)CC2)c1ncc(-c2ccc3nc(C)ccc3c2)[nH]1`, for which the clearance in [5] was 45 mL/min/kg. Further, the half-life in series [6] is 2.9 h. Besides, the AUC in [7] turned out to be 0.01 µM·h. The same compound showed a Cmax in [9] of 4 nM. Further, the Tmax in [10] worked out at 0.3 h. The compound also showed a bioavailability in series [11] of 0.1%.

`CCC(=O)CCCCC[C@H](NC(=O)[C@H]1CC12CCN(C)CC2)c1ncc(-c2cc3cccnc3cc2OC)[nH]1` displayed a clearance in series [5] of 61 mL/min/kg. The compound also gave a half-life in series [6] of 9.5 h. This compound yielded an AUC in series [7] of 0.06 µM·h. In series [8], this compound had a concentration at 24 h of 1 nM. The peak level in series [9] (Cmax) was 20 nM. Moreover, the Tmax in series [10] was found to be 2.1 h. The bioavailability in series [11] turned out to be 2%.

On to `CCC(=O)CCCCC[C@H](NC(=O)[C@H]1CC12CCN(CC)CC2)c1ncc(-c2cc3ccc(C)nc3cc2OC)o1`, for which the results for the clearance in series [5] and in series [12] were 65 mL/min/kg and 2.9 mL/min/kg, respectively. The bioavailability in [13] was determined as 11%; in series [11], 25%. The values for the Tmax in [14] and in series [10] were 3 h and 5 h, respectively. Further, the Cmax was 15 nM in series [15] and 150 nM in series [9]. Moreover, the half-life in series [6] was 5.4 h; in series [18], 91 h. Further, the AUC stood at 1.1 µM·h in series [7] and 0.07 µM·h in series [16]. Also, the concentration at 24 h in [8] was 7.2 nM; in series [17], 2 nM.

`CCC(=O)CCCCC[C@H](NC(=O)[C@H]1CC12CCN(CC)CC2)c1ncc(-c2cc3ccn(CC)c(=O)c3cc2OC)o1` displayed a clearance in [5] of 100 mL/min/kg. The half-life in series [6] is 6.5 h. Besides, the AUC in [7] amounted to 0.6 µM·h. The concentration at 24 h in series [8] was 2.2 nM. In series [9], this compound showed a Cmax of 120 nM. In addition, the Tmax in series [10] amounted to 5 h. The compound also yielded a bioavailability in series [11] of 22%.

In series [5], `CCC(=O)CCCCC[C@H](NC(=O)[C@H]1CC12CCN(C(C)C)CC2)c1ncc(-c2cc3ccc(C)nc3cc2OC)[nH]1` had a clearance of 60 mL/min/kg. The same compound gave a half-life in series [6] of 24 h. Also, the AUC in [7] was 0.02 µM·h. Besides, the concentration at 24 h in series [8] was 1 nM. The compound further returned a Cmax in [9] of 9 nM. The Tmax in series [10] stood at 2.1 h. The compound further came in with a bioavailability in series [11] of 0.6%.

In the case of `CCC(=O)CCCCC[C@H](NC(=O)[C@H]1CC12CCN(C)CC2)c1ncc(-c2cc3ccc(C)nc3cc2OC)[nH]1`, the clearance in series [5] came out at 12 mL/min/kg. The same compound had a half-life in [6] of 33 h. Moreover, the AUC in series [7] is 0.98 µM·h. Further, in series [8], the concentration at 24 h came to 8.9 nM. In addition, the Cmax in [9] amounted to 170 nM. For the same compound, in series [10], the Tmax amounted to 5 h. Besides, the bioavailability in [11] came out at 2.5%.

On to `CCC(=O)CCCCC[C@H](NC(=O)[C@H]1CC12CCN(C)CC2)c1ncc(-c2cc3ccc(C)nc3cc2OC)o1`, for which the clearance amounted to 25 mL/min/kg in [5] and 6 mL/min/kg in series [12]. Further, the bioavailability is 42% in [13] and 78% in series [11]. Also, the Tmax in series [14] is 3 h; in [10], 4 h. Besides, the Cmax was 72 nM in series [15] and 2500 nM in series [9]. In addition, the half-life is 4.8 h in [6] and 43 h in [18]. For the same compound, the AUC was 10 µM·h in series [7] and 0.57 µM·h in [16]. The concentration at 24 h in series [8] came to 28 nM; in series [17] it was 3.3 nM.

On to `CCC(=O)CCCCC[C@H](NC(=O)[C@H]1CC12CCN(C)CC2)c1ncc(-c2cc3ccc(C)nc3cc2F)o1`, for which the clearance in series [5] came out at 71 mL/min/kg. In series [6], this compound gave a half-life of 1.9 h. The compound further showed an AUC in series [7] of 0.3 µM·h. In addition, the concentration at 24 h in series [8] was 1 nM. Further, the highest level in series [9] (Cmax) was 63 nM. Also, the Tmax in [10] was determined as 2 h. This compound returned a bioavailability in series [11] of 6.9%.

For `CCC(=O)CCCCC[C@H](NC(=O)[C@H]1CC12CCN(CC)CC2)c1ncc(-c2cc3cccnc3nc2OC)o1`, the clearance in [5] amounted to 6 mL/min/kg. For the same compound, the half-life in [6] was 3.9 h. The AUC in series [7] was found to be 9.7 µM·h. The concentration at 24 h in series [8] is 9.2 nM. The Cmax in series [9] worked out at 2100 nM. Further, in series [10], the Tmax was determined as 3 h. In [11], the bioavailability was found to be 20%.

On to `CCC(=O)CCCCC[C@H](NC(=O)[C@H]1CC12CCN(CC)CC2)c1ncc(-c2cc3ccc(C)nc3cc2OC)[nH]1`, for which the clearance amounted to 51 mL/min/kg in series [5] and 24 mL/min/kg in series [12]. The bioavailability in series [13] was found to be 4.1%; in series [11] it was 7.9%. For the same compound, the Tmax in series [14] turned out to be 1.3 h; in series [10], 2.1 h. The values for the Cmax in series [15] and in series [9] were 26 nM and 97 nM, respectively. In addition, the half-life in series [6] was 13 h; in series [18], 19 h. Further, the AUC in series [7] came to 0.47 µM·h; in series [16], 0.1 µM·h. Further, the concentration at 24 h in series [8] is 3.2 nM; in series [17], 1.2 nM.

By Cmax is commonly meant the highest concentration seen after dosing. A word on the clearance: it is a measure of how efficiently the substance is removed, as volume per time. High values mean a high capacity for elimination, low ones a low capacity for elimination. For orientation: half-life means the time needed for the level to fall by half in the phase considered. For orientation: AUC means the area under the concentration-time curve, a measure of exposure. A low value points to low exposure. One may read the Tmax as the time from dosing to the highest level. Usually bioavailability stands for the share of a dose that reaches the circulation, judged against a reference dose that is usually intravenous. A lower bioavailability goes with little systemic uptake.
